Data taken from patent US11576901B2, “Methods for treating viral infection” (HOWARD UNIVERSITY, priority 2016, dated 2023).

Tests used:
Format in all cases: cell-based
RACK-1 = molecular target: T1, RACK-1 (Homo sapiens, UniProt P63244); test: Western assay of RACK-1 expression in HSV-1 infected Hep-2 cells; details: 100 μM, 24 hours pretreatment, twenty hours after infection, FIG. 6
T1 construct: endogenous in cells; host or cells: Hep-2 cells infected with HSV-1
Experimental: FIG. 6 is a Western assay showing expression of RACK-1, the IE protein ICP0, DE protein ICP8 and the L protein gD following infection of Hep-2 cells at varying multiplicity of infection (MOI) of HSV-1. In FIG. 6, ICP0 designates immediate early viral protein, ICP8 designates early viral protein, and dD designates late viral protein. Tubulin was used as a sample loading control. Prior to infection, Hep-2 cells were treated with DSMO as a control, 100 μM SD-29 or 100 μM SD29-12. After 24 hours of pretreatment, the Hep-2 cells were infected with HSV-1 at either 0.01, 0.05, 0.25 or 1.25 MOI (from 0.01 to 1.25). Twenty hours after infection, whole cell lysate samples were obtained and the Western assay shown in FIG. 6 was performed to examine protein levels.

HSV-1 = test: Western assay of IE, DE and L HSV-1 proteins (ICP0, ICP8, gD) in infected Hep-2 cells; details: 100 μM, 24 hours pretreatment, HSV-1 0.01 to 1.25 MOI, twenty hours after infection, FIG. 6
From the text: Compounds in accordance with General Formula 1, including derivatives in accordance with any of General Formulae 1-1 to 1-20, can be evaluated for the capacity to inhibit triggered expression of at least a portion of a virus genome containing an IRES sequence by administering the compound, or a pharmaceutically acceptable salt of the compound, to a cell culture and exposing the cell culture to a HSV-1 infection. After a sufficient amount of time, the culture can be examined to determine the expression of IE, DE and L genes. If the amount of at least one protein corresponding to an IE gene and at least one protein corresponding to a DE and/or L gene within the viral genome is diminished compared to that within an identical infected cell culture not treated with the compound or its salt, then the compound would be capable of inhibiting triggered expression of at least a portion of the viral genome. […]
Compounds in accordance with General Formula 1, including derivatives in accordance with any of General Formulae 1-1 to 1-20, or pharmaceutically acceptable salts thereof, can be assessed for the ability to inhibit triggered expression of at least a portion of the HSV-1 genome by infecting Hep-2 cells with the HSV-1 virus. […]

[1] = system: HIV1 modified pNL4-3.Luc.R-E-virus; test: Luciferase luminescence of CEM T cells infected with HIV1 modified pNL4-3.Luc.R-E-virus; design: dose or concentration left out as unconfirmed; details: CEM T cells pretreated before infection; vs untreated and DMSO; FIG. 2
From the text: The expression of the protein assessed may be native, i.e. naturally occurring within the genome of the virus to be treated. In combination or the alternative, expression of a protein introduced to the viral genome may be assessed. Assessing the expression of an introduced protein may enable an assessment of viral proliferation by means not normally permitted by the native viral genome. For example, proliferation of the HIV1 virus can be assessed using luminescence with the HIV1 modified pNL4-3.Luc.R-E-virus. […] Accordingly, proliferation of the HIV1 modified pNL4-3.Luc.R-E-virus will entail production of the luciferase protein. […]
Accordingly, compounds in accordance with General Formula 1, including derivatives in accordance with General Formulae 1-1 to 1-20, or pharmaceutically acceptable salts thereof, can be assessed for the ability to inhibit proliferation of the HIV1 by infecting CEM T cells with the HIV1 modified pNL4-3.Luc.R-E-virus. […]
Prior to infection with the HIV1 modified pNL4-3.Luc.R-E-virus, the CEM T cells were pretreated with either SD-29 or DMSO ([…]) or left untreated. […] To assess luminescence, 100 μL of the cell suspension and […] of reconstituted luciferase buffer (Luclite Kit, Perkin Elmer) were added to wells and allowed to incubate for 10 minutes. […]

In the case of `Nn1c(S)nnc1-c1ccc(F)cc1` [SD-29], the “expression of RACK-1” value (RACK-1) was “reduced expression of RACK-1”, the “expression of IE, DE and L HSV-1 proteins (triggered expression)” value (HSV-1) was “significantly inhibited triggered expression” and the “luminescence / proliferation of the HIV1 modified pNL4-3.Luc.R-E-virus” value [1] was “significantly reduced proliferation”.
